# Assay results: BindingDB's records for doi:10.1111/j.1747-0285.2006.00365.x (Johnson & Johnson Pharmaceutical Research & Development, 2006)
# Target: p53 binding protein (Homo sapiens, UniProt Q9H4C2)
# Assay: HDM2 Binding Assay
# Description: Binding assay using 1,4-benzodiazepine-2,5-dione (BZD) scaffold and HDM2-p53 protein.
# p53 binding protein, sequence (Q9H4C2 whole entry): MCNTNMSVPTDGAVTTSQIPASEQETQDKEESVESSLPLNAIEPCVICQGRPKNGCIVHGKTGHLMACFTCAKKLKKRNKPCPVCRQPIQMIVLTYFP
row,SMILES,IC50
1,"O=C(O)C(c1ccccc1)N1C(=O)c2ccccc2NC(=O)C1c1ccccc1 (stereo not given) [BZD Scaffold, 1]",> 125 µM
2,"CC(C)c1ccc2c(c1)C(=O)N(C(C(=O)O)c1ccc(Cl)cc1)C(c1ccc(Cl)cc1)C(=O)N2 (stereo not given) [BZD Scaffold, 2]",1 µM
3,"O=C(O)C(c1ccccc1)N1C(=O)c2cc(I)ccc2NC(=O)C1c1ccccc1 (stereo not given) [BZD Scaffold, 3]",29 µM

# More lines, now with the values ahead:
row,IC50,SMILES
1,3.8 µM,"O=C(O)C(c1ccccc1)N1C(=O)c2cc(I)ccc2NC(=O)C1c1ccc(C(F)(F)F)cc1 (stereo not given) [BZD Scaffold, 4]"
2,1.7 µM,"O=C(O)C(c1ccccc1)N1C(=O)c2cc(I)ccc2NC(=O)C1c1ccc(Cl)cc1 (stereo not given) [BZD Scaffold, 5]"
